Here are results for two compounds from patent US20260199293A1, “2-Arylbenzimidazole Compounds for the Treatment of Hemoglobinopathies” (TRANQUIS THERAPEUTICS, INC., priority 2022, published 2026).

The subject of series [1] is human primary erythroid progenitor CD34+ cells. Put plainly: Effects on human primary erythroid progenitor CD34+ cells (F cells by flow cytometry, globin mRNA by qRT-PCR), Example 7. To be noted: for percentage of HbF-positive cells (F cells): flow cytometry. The class given is cell-based. The procedure: The effects of the compounds and formulations described in Sections 3.2 and 3.3 hereinabove on human primary erythroid progenitor CD34^+ cells are studies using methods adapted from Sun et al. Sun et al., Br J Haematol. 197:97-109 (2022), the disclosure of which is herein incorporated by reference in its entirety. HbF-positive cells (F cells) are quantified by flow cytometry after compound exposure. Globin gene mRNA abundance is determined by quantitative real-time polymerase chain reaction (qRT-PCR).
In general terms: In flow cytometry, cells or beads pass a laser one at a time.

In a further series the test system is SCD mice. The series can be described thus: Effects on SCD mice (globin gene expression by qRT-PCR, F cells in peripheral blood by flow cytometry), Example 8. Type of series: in vivo. The procedure:
The effects of the compounds and formulations described in Sections 3.2 and 3.3 on SCD mice are studied using methods adapted from Sun et al., Br J Haematol. 197:97-109 (2022), the disclosure of which is herein incorporated by reference in its entirety. Relative mRNA abundance of PGC-1α and globin gene expression are determined by quantitative real-time polymerase chain reaction (qRT-PC R). HbF-positive cells (F cells) in peripheral blood of treated SCD mice are quantified by flow cytometry
(In qPCR the cycle at which signal appears reflects the starting amount.)

A further series in a line: Solubility (statement). Type of series: physicochemical. From the text:
Oral administration is preferred to parenteral administration for chronic life-long treatment, as is required for treating hemoglobinopathies such as sickle cell disease. […] There is a need, therefore, for agents that increase PGC-1α expression that can be administered orally for treatment of hemoglobinopathies such as SCD.

For series [2], the system named is human primary erythroid progenitor CD34+ cells. To be noted: cited from earlier work.
The test system of the next series is sickle mice. To be noted: cited from earlier work.
The subject of series [3] is Ppargc1α (PGC-1α) expression. The note with it: cited from earlier work.
Series [4] relates to murine models of neurodegenerative diseases. To be noted: cited from earlier work.
Another series has as its system older mice. The note with it: cited from earlier work.
Series [5] has as its system acute systemic immune activation, including cytokine release syndrome (CRS). To be noted: cited from earlier work.

`CC(C)(C)c1ccc(-c2nc3cc(O)ccc3[nH]2)cc1` [Compound 26, 2-(4-tert-Butylphenyl)-1H-benzo[d]imidazol-5-ol]: in series [1], the “fetal γ-globin mRNA protein expression” value is “induce” and the “percentage of HbF-positive cells (F cells)” value is reported as “induce”. Moreover, in the series on SCD mice, the “expression of the murine embryonic βh1-globin gene” value is on record as “induce” and the “human γ-globin gene expression” value is “induce”.
On to `CC(C)(C)c1ccc(-c2nc3ccccc3[nH]2)cc1` [TQS-168, 2-(4-tert-butylphenyl)-1H-benzimidazole], for which, in [1], the “fetal γ-globin mRNA protein expression” value is listed as “induce” and the “percentage of HbF-positive cells (F cells)” value was “induce”. Moreover, in the series with SCD mice, the “expression of the murine embryonic βh1-globin gene” value is “induce” and the “human γ-globin gene expression” value is listed as “induce”. Moreover, the solubility entry in “Solubility (statement)” is listed as “poorly soluble”. In series [2], the “cell proliferation and differentiation” value is reported as “without significantly affecting”; the “fetal γ-globin mRNA and protein expression” value is given as “induce”; the “percentage of HbF-positive cell (F cells)” value is given as “induce”. For the same compound, in the series on sickle mice, the “expression of the murine embryonic βh1-globin gene” value is reported as “robust expression”; the “γ-globin expression and fetal hemoglobin (HbF) production” value was “induce”. Also, the “Ppargc1α (PGC-1α) expression” value in series [3] is given as “activator”. In [4], the disease severity entry is listed as “reduce” and the myeloid-mediated inflammation entry was “suppress”. For the same compound, in the series with older mice, the behavioral dysfunction entry was “alleviate”, the “inflammatory cytokine production in microglia” value is reported as “inhibit”, the “metabolic dysfunction in microglia” value is reported as “suppress” and the systemic inflammation result is “suppress”. In addition, the “acute systemic immune activation, including cytokine release syndrome (CRS)” value in series [5] is on record as “suppress”.
